The source of these data is paper PMC5863496, “Mesobuthus Venom-Derived Antimicrobial Peptides Possess Intrinsic Multifunctionality and Differential Potential as Drugs” (Frontiers in Microbiology, 2018).

Holding throughout (assay type): cell-based
The test system of data set [1] is Staphylococcus aureus J708. As to the kind of experiment: Inhibition-zone assay (CL). The note with it: SA J708, N.A. = no activity at 0.8 nmol peptide each well. The procedure, abridged:
(§1)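 Bacteria (~2 × 10^6 cells/ml) were seeded in 0.8% soft-agar medium (LB, Nutrient Broth or GYM) and grown at 30 or 37°C. Three peptide doses were placed in separate 2 mm wells, and inhibition zones were measured after overnight incubation. CL was calculated from the slope and intercept of a d^2 versus log n plot.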

The test system of data set [2] is Streptomyces scabiei CGMCC 4.1765. As to the kind of experiment: Inhibition-zone assay (CL). As to conditions: SSCA CGMCC 4.1765, N.A. = no activity at 0.8 nmol peptide each well. The procedure, abridged: as §1
The test system of data set [3] is Escherichia coli D. J45b. As to the kind of experiment: Inhibition-zone assay (CL). The note with it: EC D. J45b, N.A. = no activity at 0.8 nmol peptide each well. The procedure, abridged:
as §1

The subject of data set [4] is Staphylococcus aureus J710. The data set can be described thus: Inhibition-zone assay (CL). The note with it: SA J710, N.A. = no activity at 0.8 nmol peptide each well. A digest of the protocol: as §1
In data set [5] the test system is Streptomyces griseus NBRC 13350. As to the kind of experiment: Inhibition-zone assay (CL). The note with it: SG NBRC 13350, N.A. = no activity at 0.8 nmol peptide each well. A digest of the protocol: as §1
Data set [6] has as its system Salmonella enterica ATCC 14028. As to the kind of experiment: Inhibition-zone assay (CL). As to conditions: SE ATCC 14028, N.A. = no activity at 0.8 nmol peptide each well. The procedure, abridged:
as §1

The subject of data set [7] is Escherichia coli TOP10. The data set can be described thus: Inhibition-zone assay (CL). The note with it: EC TOP10, N.A. = no activity at 0.8 nmol peptide each well. A digest of the protocol:
as §1

In data set [8] the test system is Staphylococcus aureus J706. As to the kind of experiment: Inhibition-zone assay (CL). The note with it: SA J706, N.A. = no activity at 0.8 nmol peptide each well. A digest of the protocol: as §1
For data set [9], the system named is fresh erythrocytes from the ICR mice. The data set can be described thus: Hemolytic assay, mouse erythrocytes. As to conditions: mouse blood cells, 30 min, 37°C, A570. The method, then: Hemolytic activity of peptides against fresh erythrocytes from the ICR mice (Mus musculus), the lizards (Eremias multiocellata) or the pigeons (Columba livia domestica) was assayed according to the standard method (Zhu et al., [2012a]). An aliquot of freshly prepared venom was diluted with 0.9% NaCl to a protein concentration of ~5 mg/mL for use. The percentage of hemolysis is determined as (Apep-Ablank)/(Atot-Ablank) × 100, in which “A” represents absorbance measured at 570 nm. Ablank and Aprep were evaluated in the absence or presence of the venom or peptides. 100% hemolysis (Atot) was obtained in the presence of 1% Triton X-100.

Data set [10] concerns Pseudomonas aeruginosa 14. As to the kind of experiment: Inhibition-zone assay (CL). As to conditions: PA 14, N.A. = no activity at 0.8 nmol peptide each well. A digest of the protocol: as §1
Data set [11] concerns Pseudomonas aeruginosa 11092618. The data set can be described thus: Inhibition-zone assay (CL). The note with it: PA 11092618, N.A. = no activity at 0.8 nmol peptide each well. The procedure, abridged: as §1
Data set [12] relates to Alcaligenes faecalis CGMCC 1.1837. The data set can be described thus: Inhibition-zone assay (CL). The note with it: AF CGMCC 1.1837, N.A. = no activity at 0.8 nmol peptide each well. A digest of the protocol:
as §1

For data set [13], the system named is Pseudomonas aeruginosa QT1. The data set can be described thus: Inhibition-zone assay (CL). The note with it: PA QT1, N.A. = no activity at 0.8 nmol peptide each well. The procedure, abridged:
as §1

The subject of data set [14] is Pseudomonas aeruginosa O1. As to the kind of experiment: Inhibition-zone assay (CL). The note with it: PA O1, N.A. = no activity at 0.8 nmol peptide each well. The procedure, abridged: as §1
In data set [15] the test system is Pseudomonas aeruginosa 11082616. The data set can be described thus: Inhibition-zone assay (CL). The note with it: PA 11082616, N.A. = no activity at 0.8 nmol peptide each well. A digest of the protocol:
as §1

Data set [16] concerns Candida albicans JX1017. The data set can be described thus: Inhibition-zone assay (CL). The note with it: CA JX1017, 28°C, N.A. = no activity at 0.8 nmol peptide each well.
In data set [17] the test system is Candida albicans 4277. The data set can be described thus: Inhibition-zone assay (CL). As to conditions: CA 4277, 28°C, N.A. = no activity at 0.8 nmol peptide each well.
In data set [18] the test system is Candida albicans 4259. The data set can be described thus: Inhibition-zone assay (CL). As to conditions: CA 4259, 28°C, N.A. = no activity at 0.8 nmol peptide each well.
For data set [19], the system named is Candida albicans 4247. As to the kind of experiment: Inhibition-zone assay (CL). The note with it: CA 4247, 28°C, N.A. = no activity at 0.8 nmol peptide each well.
Data set [20] has as its system Candida albicans JX1016. As to the kind of experiment: Inhibition-zone assay (CL). As to conditions: CA JX1016, 28°C, N.A. = no activity at 0.8 nmol peptide each well.
The subject of data set [21] is Pseudomonas aeruginosa DH. The data set can be described thus: Inhibition-zone assay (CL). As to conditions: PA DH, N.A. = no activity at 0.8 nmol peptide each well. The procedure, abridged:
as §1

For data set [22], the system named is Pseudomonas aeruginosa 11082603. As to the kind of experiment: Inhibition-zone assay (CL). The note with it: PA 11082603, N.A. = no activity at 0.8 nmol peptide each well. A digest of the protocol:
as §1

[23] abbreviates: peptide 3.125 μM, mean ± S.D., triplicate.

Ends that are not written are not given here.

For `CC[C@H](C)[C@H](NC(=O)CN)C(=O)NCC(=O)N[C@@H](C)C(=O)N[C@H](C(=O)N[C@@H](CC(C)C)C(=O)N[C@@H](CCCCN)C(=O)N[C@H](C(=O)N[C@@H](CC(C)C)C(=O)N[C@H](C(=O)N[C@H](C(=O)NCC(=O)N[C@@H](CC(C)C)C(=O)N1CCC[C@H]1C(=O)N[C@@H](C)C(=O)N[C@@H](CC(C)C)C(=O)N[C@H](C(=O)N[C@@H](CO)C(=O)N[C@@H](Cc1c[nH]c2ccccc12)C(=O)N[C@H](C(=O)N[C@@H](CCCCN)C(=O)N[C@@H](CCCNC(=N)N)C(=O)N[C@@H](CCCCN)C(=O)N[C@@H](CCCNC(=N)N)C(=O)N[C@@H](CCC(N)=O)C(=O)N[C@@H](CCC(N)=O)C(N)=O)[C@@H](C)CC)[C@@H](C)CC)[C@@H](C)O)[C@@H](C)O)C(C)C)C(C)C` [Melittin, reference compound], the “Lethal concentration (CL)” value came to 7.80 µM in data set [1]; 15.93 µM in [2]; 24.54 µM in [3]; 8.98 µM in data set [4]; 28.79 µM in data set [5]; 24.74 µM in data set [6]. For the same compound, the “Lethal concentration (CL)” value in [7] came to 13.80 µM; in data set [8], 16.41 µM. The hemolysis entry in [9] (setting [23]) is reported as “complete hemolysis”.

Consider “FFGHLFKLATKIIPSLFQ [MUC-18, reference compound]”, for which the “Lethal concentration (CL)” value is 6.86 µM in [1]; 4.45 µM in [2]; 22.72 µM in data set [3]; 31.40 µM in data set [10]; 5.16 µM in data set [4]; 31.40 µM in data set [11]. In addition, the “Lethal concentration (CL)” value in data set [5] turned out to be 31.40 µM; in data set [12] it was 18.64 µM; in [6], 35.64 µM; in data set [13], 18.49 µM; in data set [14], 41.58 µM; in data set [15], 31.40 µM. Besides, the “Lethal concentration (CL)” value in [8] was 4.86 µM.

As to FLFSLIPSAISGLISAFK-NH2 [MeuFSPL-1], the “Lethal concentration (CL)” value is 11.72 µM in [16]; 10.92 µM in data set [1]; 1.77 µM in data set [2]; 10.92 µM in data set [4]; 6.25 µM in data set [17]; 14.80 µM in [18]. Moreover, the “Lethal concentration (CL)” value was 6.81 µM in [5]; 15.28 µM in data set [19]; 28.38 µM in [20]; 9.94 µM in data set [7]; 10.92 µM in [8]. Moreover, the figures for the hemolysis in [9] (setting [23]) and in data set [9] (peptide 6.25 μM) were 61 ± 2.5% and ~100%, respectively.

Consider FLFSLIPSAISGLINAFK-NH2 [MeuFSPL-2], for which the “Lethal concentration (CL)” value in data set [16] came to 11.10 µM; in data set [1], 6.21 µM; in data set [2], 7.75 µM; in [4], 7.04 µM; in data set [17], 7.06 µM; in [18] it was 12.61 µM. The “Lethal concentration (CL)” value in [19] was determined as 7.02 µM; in [20], 23.35 µM; in data set [7], 11.58 µM; in data set [8] it was 7.04 µM.

With FFGHLFKLATKIIPSFFRRKNQ [MAC-22], the “Lethal concentration (CL)” value in data set [21] came out at 11.13 µM; in [3], 6.78 µM; in data set [10], 6.78 µM; in [22], 14.35 µM; in data set [11] it was 19.08 µM; in [12] it was 11.13 µM. The “Lethal concentration (CL)” value in data set [6] is 16.37 µM; in data set [13], 10.98 µM; in data set [14], 12.03 µM; in data set [15], 19.08 µM.

Take FFGHLFKLATKIIPSLFQRKKE [MUC-22]: the “Lethal concentration (CL)” value was found to be 9.93 µM in [21]; 7.49 µM in data set [3]; 4.06 µM in data set [10]; 6.10 µM in [22]; 6.10 µM in data set [11]; 11.65 µM in data set [12]. Besides, the “Lethal concentration (CL)” value in [6] stood at 14.73 µM; in data set [13], 6.10 µM; in [14], 3.79 µM; in data set [15], 10.02 µM.

As to FLFSLIPSAISGLISAFKGRRKRDLN-NH2 [MarMEL], the “Lethal concentration (CL)” value in [21] came to 14.29 µM; in [16], 4.07 µM; in data set [1], 4.69 µM; in data set [2], 1.56 µM; in [3], 6.24 µM; in data set [4] it was 8.41 µM. The “Lethal concentration (CL)” value in data set [17] stood at 7.04 µM; in data set [22] it was 8.41 µM; in data set [18], 5.17 µM; in data set [11], 8.41 µM; in data set [5], 5.19 µM; in [6], 1.61 µM. The “Lethal concentration (CL)” value in data set [13] stood at 14.29 µM; in [15] it was 8.41 µM; in [19] it was 7.04 µM; in data set [20] it was 14.29 µM; in data set [7], 4.10 µM; in data set [8] it was 8.41 µM. Also, the hemolysis is 66 ± 1.2% in [9] (setting [23]) and ~100% in data set [9] (peptide 6.25 μM).
